Experimental findings from PubChem BioAssay (NCI) are described below.

Test systems include EKVX NSCLC; HT29 colon; MALME-3M melanoma; A498 renal; OVCAR-5 ovarian; COLO 205 colon; UO-31 renal; 786-0 renal; SNB-75 CNS; PC-3 prostate.
Assay in all cases: growth of human tumour cells (NCI), 48 h

SMILES strings stand for the structures.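 Five compound concentrations were applied to cells in 96-well plates for 48 hours; endpoints were derived by simple linear interpolation of the resulting dose-response curve. The concentration for 50% growth inhibition is given as GI50. TGI: total growth inhibition.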

Regarding `CCOC(=O)/C(=C/c1c(-c2ccccc2)[nH]c2ccccc12)C(=O)c1ccc(Cl)cc1`, the GI50 with EKVX NSCLC is 3.73 µM; in the assay on HT29 colon it was 3.96 µM; in the assay with MALME-3M melanoma it was 3.09 µM; in the assay with A498 renal it was 8.81 µM; in the assay with OVCAR-5 ovarian it was over 100 µM; in the assay with COLO 205 colon, 1.98 µM. Besides, the GI50 is 3.86 µM with UO-31 renal, 3.75 µM in the assay on 786-0 renal, 4.87 µM in the assay on SNB-75 CNS and 3.08 µM with PC-3 prostate. The TGI in the assay with EKVX NSCLC was over 100 µM; with HT29 colon, over 100 µM; with MALME-3M melanoma, over 100 µM; with A498 renal it was over 100 µM; in the assay on OVCAR-5 ovarian, over 100 µM; with COLO 205 colon, 4.36 µM. In addition, the TGI in the assay with UO-31 renal, with 786-0 renal, in the assay with SNB-75 CNS and in the assay on PC-3 prostate was over 100 µM throughout.
Take `CC[C@]12C=CCN3CC[C@]4(C(=C(C(=O)OC)C1)Nc1ccccc14)[C@@H]32`: the GI50 is 5.99 µM with EKVX NSCLC; 3.41 µM in the assay with HT29 colon; 3.43 µM in the assay with MALME-3M melanoma; 7.12 µM in the assay on A498 renal; 6.55 µM with OVCAR-5 ovarian; 5.62 µM in the assay with COLO 205 colon. The GI50 in the assay with UO-31 renal is 4.11 µM; with 786-0 renal it was 3.66 µM; in the assay on SNB-75 CNS, 2.15 µM; in the assay with PC-3 prostate, 5.36 µM. The TGI with EKVX NSCLC came to 22.4 µM; in the assay on HT29 colon, 12.8 µM; in the assay with MALME-3M melanoma, 15.2 µM; in the assay on A498 renal, 20.2 µM; with OVCAR-5 ovarian it was 21.2 µM; in the assay on COLO 205 colon, 20 µM. In addition, the TGI with UO-31 renal was 16.5 µM; in the assay on 786-0 renal it was 15.6 µM; in the assay on SNB-75 CNS it was 7.93 µM; in the assay on PC-3 prostate, 22.8 µM.
Take `COc1ccc(C(NCCNC(c2ccc(OC)c(OC)c2)c2cc3c(cc2O)OCO3)c2cc3c(cc2O)OCO3)cc1OC` (stereo not given): the TGI with EKVX NSCLC is 18.7 µM; with HT29 colon, 9.69 µM; with MALME-3M melanoma, 15.4 µM; in the assay on A498 renal, 20.2 µM; in the assay on OVCAR-5 ovarian it was 11.6 µM; in the assay on COLO 205 colon, over 26.1 µM. Also, the TGI in the assay on UO-31 renal worked out at 8.27 µM; with 786-0 renal it was 4.58 µM; in the assay on SNB-75 CNS it was 11.5 µM; with PC-3 prostate, 6.64 µM.
Take `Cn1cc(-c2ccc3c(c2)ncn3-c2ccc(CC(=O)Nc3cc(C(C)(C)C)on3)cc2)cn1`: the GI50 is 1.75 µM in the assay with EKVX NSCLC; 2.6 µM with HT29 colon; 1.29 µM with MALME-3M melanoma; 0.122 µM in the assay with A498 renal; 1.35 µM with OVCAR-5 ovarian; 1.95 µM in the assay with COLO 205 colon. Besides, the GI50 in the assay with UO-31 renal was 0.224 µM; in the assay on 786-0 renal, 1.48 µM; in the assay on SNB-75 CNS, 0.474 µM; in the assay on PC-3 prostate, 2.78 µM. Besides, the TGI is 31.1 µM in the assay on EKVX NSCLC; over 36.7 µM with HT29 colon; 12.6 µM in the assay with MALME-3M melanoma; 0.461 µM in the assay with A498 renal; over 27.2 µM in the assay with OVCAR-5 ovarian; 5.24 µM in the assay with COLO 205 colon. The TGI with UO-31 renal is 2.2 µM; in the assay on 786-0 renal it was over 84.6 µM; with SNB-75 CNS it was 2.87 µM; in the assay on PC-3 prostate it was over 74.7 µM.
Regarding `COc1ccc2c(c1)C(=O)/C(=C/c1ccc(OCC(=O)c3ccc(Cl)cc3)cc1)O2`, the GI50 in the assay with EKVX NSCLC was 25.6 µM; in the assay with HT29 colon it was 20.1 µM; in the assay on MALME-3M melanoma it was 20 µM; with A498 renal it was 48.9 µM; in the assay with OVCAR-5 ovarian, 11.5 µM; in the assay on COLO 205 colon, 4.64 µM. In addition, the GI50 in the assay with UO-31 renal is 10.4 µM; with 786-0 renal, 21.7 µM; in the assay with SNB-75 CNS, 12.2 µM; with PC-3 prostate, 14.7 µM. Also, the TGI in the assay on EKVX NSCLC was over 100 µM; in the assay on HT29 colon, 40.7 µM; in the assay on MALME-3M melanoma, 42.3 µM; in the assay with A498 renal, over 100 µM; in the assay with OVCAR-5 ovarian it was 23.9 µM; in the assay with COLO 205 colon, 18 µM. The TGI in the assay with UO-31 renal amounted to 25.6 µM; in the assay with 786-0 renal it was 47.2 µM; in the assay on SNB-75 CNS, 79.9 µM; in the assay with PC-3 prostate it was 69.1 µM.
Regarding `CCN(CC)c1ccc(/C=C/C2=[N+](C)c3ccccc3C2(C)C)cc1`, the GI50 with EKVX NSCLC was 0.235 µM; in the assay with HT29 colon, 0.148 µM; with MALME-3M melanoma, 0.29 µM; in the assay with A498 renal it was 1.65 µM; in the assay with OVCAR-5 ovarian, 1.01 µM; in the assay with COLO 205 colon, 0.161 µM. The GI50 with UO-31 renal was 3.26 µM; with 786-0 renal, 0.653 µM; with SNB-75 CNS, 0.34 µM; with PC-3 prostate, 0.167 µM. Further, the TGI was 14 µM in the assay with EKVX NSCLC; over 40.5 µM in the assay on HT29 colon; 3.29 µM in the assay on MALME-3M melanoma; 12.2 µM in the assay with A498 renal; 23.7 µM in the assay on OVCAR-5 ovarian; 0.392 µM with COLO 205 colon. Also, the TGI in the assay on UO-31 renal was 18.1 µM; in the assay with 786-0 renal it was 13.6 µM; in the assay with SNB-75 CNS, 17.3 µM; in the assay with PC-3 prostate, 31.7 µM.
